# Assay results taken from PMC8235783, “Radiopharmaceutical Formulation and Preclinical Testing of ^68Ga-Labeled DOTA-MGS5 for the Regulatory Approval of a First Exploratory Clinical Trial” (Pharmaceuticals, 2021).
# Key:
# [1] = target: T1, CCK2R on A431-CCK2R cells (human CCK2R) (Homo sapiens, UniProt P32239); assay: Receptor affinity competition assay against [125I][3-iodo-Tyr12,Leu15]gastrin-I; assay type: binding; settings: competition against [125I][3-iodo-Tyr12,Leu15]gastrin-I on A431-CCK2R cells, 1 h at RT; n = 3 (Ga-DOTA-MGS5 n = 1)
# T1 construct: expressed in transfected cells; host or cells: A431 human epidermoid carcinoma cells, stably transfected (provided by Dr. Luigi Aloj)
# T1 sequence (P32239 1-447): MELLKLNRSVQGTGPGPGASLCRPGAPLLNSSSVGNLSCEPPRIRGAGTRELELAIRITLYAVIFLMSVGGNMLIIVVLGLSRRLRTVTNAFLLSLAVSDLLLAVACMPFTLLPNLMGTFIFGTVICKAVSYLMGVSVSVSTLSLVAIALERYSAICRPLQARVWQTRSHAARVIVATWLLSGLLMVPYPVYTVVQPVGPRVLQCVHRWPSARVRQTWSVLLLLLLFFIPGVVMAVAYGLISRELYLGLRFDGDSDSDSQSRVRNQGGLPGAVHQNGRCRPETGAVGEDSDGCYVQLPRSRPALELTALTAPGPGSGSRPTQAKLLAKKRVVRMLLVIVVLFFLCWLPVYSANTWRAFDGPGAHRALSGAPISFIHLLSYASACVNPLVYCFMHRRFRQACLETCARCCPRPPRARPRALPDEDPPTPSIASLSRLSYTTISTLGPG
# Protocol: A431-CCK2R and A431-mock cells were cultured in Dulbecco’s Modified Eagle Medium (DMEM) and AR42J cells were cultured in RPMI-1640 medium, both supplemented with 10% (v/v) fetal bovine serum and 5 mL of a 100x penicillin–streptomycin–glutamine mixture at 37 °C in a humidified 95% air/5% CO2 atmosphere. Media and supplements were purchased from Invitrogen Corporation (Lofer, Austria).
# Binding assays on A431-CCK2R cells were carried out as previously described [37]. The cells were incubated with increasing concentrations of the peptide conjugates and [^125I][3-iodo-Tyr^12,Leu^15]gastrin-I (~20,000 cpm) for 1 h at RT. Half-maximum inhibitory concentration (IC50) values were calculated after nonlinear regression using Origin software (Microcal Origin 6.1, Northampton, MA, USA).
# [2] = 14-day extended single-dose intravenous toxicity study in rats; assay type: in vivo
# Protocol: In the preclinical evaluation of the safety profile of DOTA-MGS5, a targeted approach was followed for the 14-day extended single-dose toxicity study conducted in male Wistar rats. Instead of performing the study in animals of both sexes at a single dose level, the non-clinical evaluation was confined to male animals, including, however, three different dose levels based on mg/kg scaling and body surface scaling (applying a factor of 6.2). Considering a maximum dose of 50 µg administered to patients and an exposure margin of 100-fold the clinical dose, a dose level of 0.5 mg/kg body weight was calculated for the study and used as medium dose. Two additional dose levels of 0.1 mg/kg body weight and 2.5 mg/kg body weight were selected to allow a more accurate evaluation of the safety profile. Based on the preclinical biodistribution studies, the stomach, pancreas, and kidneys were identified as the main target organs. In addition to these organs, the liver and colon as potential additional routes of excretion, as well as spleen and sternum (including bone marrow), were also included in the histopathological evaluation.
# A NOAEL (no observed adverse effect level) of 2.5 mg/kg body weight was established from the study for the single administration of DOTA-MGS5. When considering body surface scaling from rats to humans, the NOAEL of 2.5 mg/kg body weight translates to a HED (human equivalent dose) of 0.4 mg/kg body weight. By applying a safety factor of 100, a maximum dose of 4 µg/kg body weight was established for human subjects receiving the initial clinical dose. For the first PET/CT examinations with ^68Ga-DOTA-MGS5, a maximum dose of 50 µg could be established as clinical dose, which remains well below the maximum dose of 4 µg/kg body weight.
# The safety of the intravenous injection was tested for unlabeled DOTA-MGS5 in a GLP-compliant 14-day extended single-dose intravenous toxicity study in rats using the intravenous route of administration. The study was designed following a targeted microdose approach based on the ICH guideline M3 (R2) on non-clinical safety studies for the conduct of human clinical trials and marketing authorization for pharmaceuticals (EMA/CPMP/ICH/286/1995, December 2009), as well as the draft guideline on the non-clinical requirements for radiopharmaceuticals (EMA/CHMP/SWP/686140/2018, 15 November 2018). The study was conducted in a GLP-compliant laboratory (BSL BIOSERVICE Scientific Laboratories Munich GmbH, Planegg/Munich, Germany) using 60 6–7-week-old male healthy Wistar rats (Crl: WI(Han), Full Barrier, Charles River, Sulzfeld, Germany). […] Body weight and food consumption was determined on a weekly basis. […]
# in vivo = settings: female, BALB/c, mouse, iv, 20 pmol peptide
# Protocol: The biodistribution profile of ^68Ga-DOTA-MGS5 in female BALB/c mice was evaluated for the time points of 5, 20, 60, and 90 min post injection (p.i.).
# Biodistribution studies evaluating the pharmacokinetics and tissue distribution of ^68Ga-DOTA-MGS5 were performed in 6-week-old female BALB/c mice (n = 12). Groups of three mice for each time point were injected intravenously via a lateral tail vein with ~1 MBq of ^68Ga-DOTA-MGS5 corresponding to 20 pmol peptide. The mice were euthanized by cervical dislocation 5, 20, 60, and 90 min after injection and different tissues (blood, lung, heart, muscle, spleen, intestine, liver, kidneys, pancreas, stomach, and femur) were removed, weighed, and their radioactivity measured in a gamma-counter together with a standard and the residual body. Results were expressed as percentage of injected activity per organ (% IA) and per gram tissue (% IA/g).
# [3] = injected dose of 150 MBq; cited from earlier work
# Protocol: When extrapolating the biodistribution data from mice to humans, a whole-body effective dose of 0.0102 mSv/MBq for men and of 0.0131 mSv/MBq for women was calculated. In Table 4, a summary of the calculated organ absorbed doses is given. At a maximum injected activity of 185 MBq, a whole-body radiation dose of 1.9–2.4 mSv can be anticipated for a PET examination with ^68Ga-DOTA-MGS5. The radiation exposure from the radioactive substance is in a similar range of a low-dose CT scan of 3–6 mSv. Due to the potential hazards of ionizing radiation, the dose of the PET/CT scan should be kept a ...
# [4] = target: T2, AR42J cells with physiological expression of rat CCK2R (Rattus norvegicus, UniProt P30553); settings: 4 h after incubation; cited from earlier work
# T2 construct: In AR42J cells with physiological expression of rat CCK2R; host or cells: AR42J rat pancreatic tumor cells
# T2 sequence (P30553 1-452): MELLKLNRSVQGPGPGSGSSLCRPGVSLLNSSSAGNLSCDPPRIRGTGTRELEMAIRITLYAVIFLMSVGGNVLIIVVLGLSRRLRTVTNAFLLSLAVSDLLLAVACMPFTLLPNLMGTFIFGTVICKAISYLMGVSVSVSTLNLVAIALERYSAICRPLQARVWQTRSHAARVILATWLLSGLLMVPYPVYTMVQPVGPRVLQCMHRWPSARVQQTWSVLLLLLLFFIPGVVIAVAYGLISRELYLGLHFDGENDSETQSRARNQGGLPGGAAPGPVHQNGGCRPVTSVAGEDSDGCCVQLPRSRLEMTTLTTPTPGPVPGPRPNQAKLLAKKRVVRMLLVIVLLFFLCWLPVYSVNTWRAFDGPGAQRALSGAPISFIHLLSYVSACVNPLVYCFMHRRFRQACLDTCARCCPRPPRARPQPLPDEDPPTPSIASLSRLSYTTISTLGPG
# [5] = target: T3, A431-CCK2R cells (human CCK2R) (Homo sapiens, UniProt P32239); settings: 1 h incubation; cited from earlier work
# T3 construct: expressed in transfected cells; host or cells: A431 human epidermoid carcinoma cells, stably transfected (provided by Dr. Luigi Aloj)
# T3 sequence (P32239 1-447): T1 sequence (P32239 1-447)
# Protocol: For the time point of 1 h incubation, a cell internalization of ~20% was reported for ^177Lu-DOTA-PP-F11N in A431-CCK2R cells.
# [6] = total radioactivity, uptake in blood
# [7] = total radioactivity, uptake in femur
# [8] = total radioactivity, uptake in heart
# [9] = total radioactivity, uptake in intestine
# [10] = total radioactivity, uptake in kidneys
# [11] = total radioactivity, uptake in liver
# [12] = total radioactivity, uptake in lung
# [13] = total radioactivity, uptake in muscle
# [14] = total radioactivity, uptake in pancreas
# [15] = total radioactivity, uptake in spleen
# [16] = total radioactivity, uptake in stomach
compound,measurement,setting,value
"CCCC[C@@H](C(=O)N[C@@H](CC(=O)O)C(=O)N[C@@H](Cc1cccc2ccccc12)C(N)=O)N(C)C(=O)[C@H](Cc1c[nH]c2ccccc12)NC(=O)CNC(=O)[C@H](Cc1ccc(O)cc1)NC(=O)[C@H](C)NC(=O)[C@@H](CCC(=O)O)NC(=O)CN1CCN(CC(=O)O)CCN(CC(=O)O)CCN(CC(=O)O)CC1 [DOTA-MGS5, DOTA-DGlu-Ala-Tyr-Gly-Trp-(N-Me)Nle-Asp-1-Nal-NH2]",IC50,[1],0.5 ± 0.1 nM
same,treatment-related mortality or clinical symptoms,"[2]; i.v. 0.1, 0.5 and 2.5 mg/kg BW, male Wistar rats, until end of observation periods (2 and 14 days)",no treatment-related mortality or clinical symptoms occurred
same,HED (human equivalent dose),"[2]; rat, in vivo",0.4 mg/kg body weight
same,maximum dose for human subjects receiving the initial clinical dose,"[2]; rat, in vivo",4 µg/kg body weight
"CCCC[C@@H](C(=O)N[C@@H](CC(=O)O)C(=O)N[C@@H](Cc1cccc2ccccc12)C(N)=O)N(C)C(=O)[C@H](Cc1c[nH]c2ccccc12)NC(=O)CNC(=O)[C@H](Cc1ccc(O)cc1)NC(=O)[C@H](C)NC(=O)[C@@H](CCC(=O)O)NC(=O)CN1CCN(CC(=O)O)CCN(CC(=O)O)CCN(CC(=O)O)CC1 [^68Ga-DOTA-MGS5, metal not drawn]",uptake in blood,in vivo; 1.5 h,0.94 ± 0.08 % IA/g
same,tissue uptake dose at 5 min,in vivo; total radioactivity,81.8 ± 2.5 %ID
same,tissue uptake dose at 1.5 h,in vivo; total radioactivity,11.4 ± 1.7 %ID
same,tissue uptake at 5 min,in vivo; [6],17.6 ± 3.01 %ID/g
same,tissue uptake at 20 min,in vivo; [6],6.76 ± 1.17 %ID/g
same,tissue uptake at 1 h,in vivo; [6],1.99 ± 0.22 %ID/g
same,tissue uptake at 1.5 h,in vivo; [6],0.9 ± 0.1 %ID/g
same,tissue uptake at 5 min,in vivo; [7],2.77 ± 0.34 %ID/g
same,tissue uptake at 20 min,in vivo; [7],1.75 ± 0.93 %ID/g
same,tissue uptake at 1 h,in vivo; [7],0.62 ± 0.09 %ID/g
same,tissue uptake at 1.5 h,in vivo; [7],0.55 ± 0.09 %ID/g
same,tissue uptake at 5 min,in vivo; [8],5.11 ± 0.07 %ID/g
same,tissue uptake at 20 min,in vivo; [8],2.24 ± 0.57 %ID/g
same,tissue uptake at 1 h,in vivo; [8],0.7 ± 0.16 %ID/g
same,tissue uptake at 1.5 h,in vivo; [8],0.35 ± 0.02 %ID/g
same,tissue uptake at 5 min,in vivo; [9],2.42 ± 0.21 %ID/g
same,tissue uptake at 20 min,in vivo; [9],1.22 ± 0.25 %ID/g
same,tissue uptake at 1 h,in vivo; [9],0.75 ± 0.17 %ID/g
same,tissue uptake at 1.5 h,in vivo; [9],0.62 ± 0.08 %ID/g
same,tissue uptake at 5 min,in vivo; [10],17.6 ± 2.79 %ID/g
same,tissue uptake at 20 min,in vivo; [10],8.41 ± 1.33 %ID/g
same,tissue uptake at 1 h,in vivo; [10],5.11 ± 0.33 %ID/g
same,tissue uptake at 1.5 h,in vivo; [10],4.6 ± 0.32 %ID/g
same,tissue uptake at 5 min,in vivo; [11],5.02 ± 0.06 %ID/g
same,tissue uptake at 20 min,in vivo; [11],2.28 ± 0.31 %ID/g
same,tissue uptake at 1 h,in vivo; [11],1.21 ± 0.12 %ID/g
same,tissue uptake at 1.5 h,in vivo; [11],1 ± 0.06 %ID/g
same,tissue uptake at 5 min,in vivo; [12],8.51 ± 2.33 %ID/g
same,tissue uptake at 20 min,in vivo; [12],3.78 ± 0.53 %ID/g
same,tissue uptake at 1 h,in vivo; [12],1.1 ± 0.11 %ID/g
same,tissue uptake at 1.5 h,in vivo; [12],0.59 ± 0.1 %ID/g
same,tissue uptake at 5 min,in vivo; [13],2.89 ± 0.18 %ID/g
same,tissue uptake at 20 min,in vivo; [13],1.03 ± 0.21 %ID/g
same,tissue uptake at 1 h,in vivo; [13],0.49 ± 0.19 %ID/g
same,tissue uptake at 1.5 h,in vivo; [13],0.18 ± 0.04 %ID/g
same,tissue uptake at 5 min,in vivo; [14],4.03 ± 0.19 %ID/g
same,tissue uptake at 20 min,in vivo; [14],2.17 ± 0.16 %ID/g
same,tissue uptake at 1 h,in vivo; [14],1.5 ± 0.38 %ID/g
same,tissue uptake at 1.5 h,in vivo; [14],1.42 ± 0.3 %ID/g
same,tissue uptake at 5 min,in vivo; [15],3.53 ± 0.43 %ID/g
same,tissue uptake at 20 min,in vivo; [15],1.7 ± 0.38 %ID/g
same,tissue uptake at 1 h,in vivo; [15],0.71 ± 0.05 %ID/g
same,tissue uptake at 1.5 h,in vivo; [15],0.69 ± 0.09 %ID/g
same,tissue uptake at 5 min,in vivo; [16],6.63 ± 0.23 %ID/g
same,tissue uptake at 20 min,in vivo; [16],4.09 ± 0.98 %ID/g
same,tissue uptake at 1 h,in vivo; [16],4.63 ± 0.65 %ID/g
same,tissue uptake at 1.5 h,in vivo; [16],4.12 ± 0.3 %ID/g
same,maximum dose established as clinical dose,"[2]; rat, in vivo",50 µg
O=C([O-])CN(CCN(CC(=O)[O-])Cc1cc(CCC(=O)NCCCCCC(=O)NCCCC[C@H](NC(=O)N[C@@H](CCC(=O)O)C(=O)O)C(=O)O)ccc1[O-])Cc1cc(CCC(=O)O)ccc1[O-].[68Ga+3].[OH3+] [^68Ga-PSMA-11],effective radiation dose,[3],2.4 mSv
"DOTA-(DGlu)6-Ala-Tyr-Gly-Trp-Met-Asp-Phe-NH2 [^111In-CP04, minigastrin analog radiolabeled with indium-111, in clinical studies]",cell uptake,[4],14.4 ± 0.8%
"DOTA-(DGlu)6-Ala-Tyr-Gly-Trp-Nle-Asp-Phe-NH2 [^177Lu-DOTA-PP-F11N, minigastrin analog radiolabeled with lutetium-177, in clinical studies]",cell internalization,[5],~ 20%
"Ga-DOTA-MGS5: DOTA-MGS5 labeled with the stable isotope of gallium, reference standard",IC50,[1],0.5 ± 0.1 nM
